Assay results taken from PMC10787067, “EBF2 Links KMT2D‐Mediated H3K4me1 to Suppress Pancreatic Cancer Progression via Upregulating KLLN” (Advanced Science, 2023).

Assays:
PANC‐1 cells [1] = assay: Colony-formation and CCK-8 proliferation, PANC-1; assay type: cell-based, Human; conditions: vs Vehicle, p < 0.01, Figure S4E,F
Protocol: (§1) Cell proliferation was determined by Cell Counting Kit‐8 (CCK‐8, Yeasen) and EdU Cell Proliferation Assay kit (Ribobio, Guangzhou, China). Colony formation was observed by staining with 0.1% crystal violet (Sangon Biotechnologies Inc., Shanghai, China). Cell migration and invasion were assessed using […] pore Transwell chambers with (for invasion assay) or without Matrigel (for migration assay). For migration assay, 5 × 10^4 SW1990 or 3 × 10^4 PANC‐1 cells were seeded into the upper chamber of the Transwell apparatus (Corning, USA) in serum‐free medium, and the medium supplemented with 10% FBS was added to the bottom chamber. For invasion assay, 10 × 10^4 SW1990 or 6 × 10^4 PANC‐1 cells were seeded into the upper Corning BioCoat Matrigel invasion chamber. After 24 h, the cells on the upper surface that had not passed through the polycarbonate filter were removed using a moistened cotton swab; the cells having migrated to the lower membrane surface were fixed in 100% methanol for 10 min, stained with 0.4% crystal violet for 15 min, and counted under a microscope (Nikon, Japan) at ×100 magnification. The cells were manually counted using Image J software. Three independent experiments were performed.

H3K4me1 = assay: Western blot of H3K4me1 in PANC-1 cells; assay type: cell-based, Human; conditions: 0, 1, 10 or 100 μM GSK-LSD1, Figure S4D
EBF2 = assay: Co-IP with H3K4me1 antibodies from GSK-LSD1-treated SW1990 cell lysates; assay type: cell-based, Human; conditions: vs vehicle, Figure 5P
Protocol: Co‐immunoprecipitation assay was performed as described previously.^[ [61] ^] Briefly, SW1990 cells were transfected with indicated constructs or treated with GSK‐LSD1, washed with cold phosphate buffered saline (PBS), and lysed with cold cell lysis buffer. Then, the lysates were incubated with appropriate specific antibodies or normal rabbit IgG at 4 °C overnight in constant rotation, followed by the addition of protein A/G Sepharose beads and incubation for 2 h at 4 °C. The beads were then washed five times by the lysis buffer. Bead‐bound proteins were resolved by SDS‐PAGE and detected by immunoblotting using indicated antibodies.

SW1990‐luc xenografts = assay: SW1990-luc xenografts in BALB/c nude mice; assay type: in vivo, Human (xenograft in BALB/c nude mice); conditions: n = 5, p < 0.01, two-way ANOVA, dose not given, Figure 5I-K
Protocol: BALB/c nude mice (4 weeks old) were purchased from the Animal Core Facility of Nanjing Medical University. Every 1 × 10^6 SW1990‐luc cells (SW1990 cells labeled with luciferase) were suspended in 100 µL of PBS and Matrigel (Corning) mixture, then subcutaneously injected into the right forelimb of nude mice. The length and width of tumor were measured every 2 or 3 days. Tumor volume was calculated using the formula: Volume = 0.5 × length × width^2. Luciferase signals in nude mice were measured at the first and fourth week after injection. The mice were sacrificed at 30 days for in vivo proliferation assay. Mice were anesthetized with isoflurane gas and sacrificed by cervical dislocation. Tumor tissues of these mice were collected for further analyses. Luciferase signals from D‐luciferin (Cat No. MB1834; MeilunBio, Dalian, China) were measured using IVIS Spectrum (PerkinElmer, USA) at indicated concentrations. The luciferase signal activity was quantitated using the software provided by the manufacturer.

SW1990 cells [2] = assay: KLLN rescue experiments (CCK-8, colony-formation, Transwell), SW1990; assay type: cell-based, Human; conditions: p < 0.01, Figure 5Q-S
Protocol: as §1

KLLN [3] = assay: Western blot of KLLN in PANC-1 cells; assay type: cell-based, Human; conditions: 0, 1, 10 or 100 μM GSK-LSD1, Figure S4D
Protocol: (§2) SW1990 and PANC‐1 cells were isolated using lysate buffer containing protease inhibitors. Samples containing equal amounts of protein were separated by SDS‐PAGE. After electrophoresis, the proteins were transferred to a PVDF membrane (Millipore, Billerica, MA, USA) and blocked with 5% skim milk for 2 h at room temperature. An overnight incubation of membranes was made at 4 °C with primary antibodies against KMT2D (1:1000; Affinity, China), EBF2 (1:1000; Affinity), and KLLN (1:1000; Abcam, USA). After washing with 1× TBST for three times, a 2 h incubation of membranes was implemented with horseradish peroxidase (HRP)‐gemeled Affinipure Goat Anti‐Rabbit IgG (H + L) (1:10000; ProteinTech, China) or Peroxidase‐gemeled Affinipure Goat Anti‐Mouse IgG (H+L) (1:10000; ProteinTech) at room temperature. Proteins were visualized by chemiluminescence using an ECL kit (Thermo Fisher).

SW1990 cells [4] = assay: Transwell migration and invasion, SW1990; assay type: cell-based, Human; conditions: 24 h, vs Vehicle, p < 0.01, Figure 5H
Protocol: as §1

KLLN [5] = assay: Western blot of KLLN in SW1990 cells; assay type: cell-based, Human
Protocol: as §2

PANC‐1 cells [6] = assay: KLLN rescue experiments (CCK-8, colony-formation, Transwell), PANC-1; assay type: cell-based, Human; conditions: p < 0.01, Figure S4H-J
Protocol: as §1

KDM1A/LSD1 = conditions: cited from earlier work
Excerpt: Next, we sought to elucidate the roles of KMT2D‐ and EBF2‐regulated H3K4me1 through profiling the gene transcription in PDAC cells with H3K4me1 activation by GSK‐LSD1 or EBF2 overexpression (EBF2‐OE). […] These differentially expressed genes (DEGs) were overlapped genes between EBF2‐OE and GSK‐LSD1‐treated SW1990 cells. A ...

PDX tumors = assay: Patient-derived xenograft (PDX) model of PDAC; assay type: in vivo, Human (xenograft in immunodeficient nude mice)
Excerpt: A PDX model was established by implanting tumor fragments into immunodeficient nude mice. Tumor fragments were derived from a PDAC patient with stage II ductal adenocarcinoma, who underwent surgery at the Second Affiliated Hospital of Nanjing Medical University. Informed consent was obtained from each patient, and all procedures involving human samples were approved by the Ethics Committee of the Second Affiliated Hospital of Nanjing Medical University.

SMILES: c1ccc([C@@H]2C[C@H]2NC2CCNCC2)cc1 [GSK‐LSD1]
- proliferation (PANC‐1 cells [1]): significantly inhibited
- H3K4me1 level, concentration dependence (H3K4me1): increased the levels of H3K4me1 and KLLN in a concentration‐dependent manner
- EBF2 co-immunoprecipitated with H3K4me1 (EBF2; H3K4me1 antibodies): co‐immunoprecipitated more EBF2
- EBF2 expression (EBF2; concentration not given): without affect EBF2 expression
- xenograft size compared to control mice (SW1990‐luc xenografts): significantly smaller sizes of SW1990‐luc xenografts
- tumor-suppressive phenotype of GSK-LSD1 on knockdown of KLLN (SW1990 cells [2]): markedly attenuated
- KLLN level, concentration dependence (KLLN [3]): increased the levels of H3K4me1 and KLLN in a concentration‐dependent manner
- invasion (SW1990 cells [4]; Transwell with Matrigel): significantly inhibited
- migration (SW1990 cells [4]; Transwell without Matrigel): significantly inhibited
- KLLN level, concentration dependence (KLLN [5]; 0, 1, 10, or 100 µM GSK-LSD1, Figure 5E): increased the levels of H3K4me1 and KLLN in a concentration‐dependent manner
- KLLN protein level (KLLN [5]; Western blot, concentration not given, Figure 4F): significant upregulation
- tumor-suppressive phenotype of GSK-LSD1 on knockdown of KLLN (PANC‐1 cells [6]): markedly attenuated
- H3K4me1 level via blocking of KDM1A/LSD1 (KDM1A/LSD1): can increase H3K4me1 level
- inhibition of KDM1A/LSD1, in words (KDM1A/LSD1): selective inhibitor of KDM1A/LSD1
- effect compared with Gemcitabine (PDX tumors; PDX mice, n = 5, doses not given, Figure 5N,O): more favorable effects than Gemcitabine
- PDX tumor size compared with control mice (PDX tumors; n = 5, dose not given, Figure 5N): remarkably smaller tumors
